From PMC10683482, “Offsetting Low-Affinity Carbohydrate Binding with Covalency to Engage Sugar-Specific Proteins for Tumor-Immune Proximity Induction” (ACS Central Science, 2023) come the findings set out here.

The test concerns human serum antirhamnose antibody (IgG and IgM). As to the kind of experiment: ELISA covalent engagement of serum anti-rhamnose antibody. The test is classed as binding. The following applies: 2 μM compound, 2% human serum, 48 h; rhamnose 100 mM added after incubation. On the procedure:
Figure 2 Capacity of Rha-cARMs to specifically covalently engage monoclonal anti-23F and serum anti-rhamnose. A. Chemical structures of the molecules investigated. B. Assessment of covalent vs noncovalent (cARM/ARM) engagement of human serum antirhamnose antibody via an ELISA assay. Each ARM/cARM (2 μM) was incubated with 2% human serum for 48 h and subsequently incubated directly on a streptavidin ELISA plate. Recruitment was evaluated by the addition of anti-IgG or anti-IgM HRP-conjugated secondary antibody with subsequent chromogenic substrate addition. “Comp” represents the addition of competitor rhamnose (500 mM) during 48 h of incubation. “Quench” refers to the addition of competitor rhamnose (100 mM) prior to ELISA plate binding but after 48 h of reaction incubation. C. SDS-PAGE fluorescent image of anti-23F antibody covalently labeled by fluorophore substituted Rha-cARMs (6–8). A representative protein stain associated with each gel is included on the left side of the fluorescent gel images. In all cases, 2 μM anti-23F antibody is incubated with 4 μM cARM (2 equiv) for 24 h in PBS spiked with 10% human serum. Where noted, L-rhamnose (100 mM, Rha. C) was used during incubation as a competitor for specific covalent labeling. Where noted, a free fluoresceine competitor (2.5 mM, Fluor. C) was used to distinguish fluorescein-promoted covalent labeling from rhamnose-promoted. The darker background in gels corresponding to cARM 6, 7 is attributed to the differing capacity of free cARM-fluorophore (fluoroscein vs A647) to be retained in gel, as well as an alternative imaging channel (Cy2 for fluorescein, Cy5 for A647). […] D. Kinetic SDS-PAGE fluorescence imaging experiment to determine Rha-AI-cARM/anti-23F antibody labeling kinetics using A647-cARM (8). cARM 8 (2–100 μM) was incubated with anti-23F antibody (2 μM) for up to 4 h. A representative fluorescence gel image is included corresponding to compound 8 (50 μM) incubated with either anti-23F antibody or isotype human IgG. Densitometry analysis with ImageJ was used to quantify relative band intensities. […] The error is calculated by alternative fits of initial rates data (all within the linear labeling range).
Next, we tested if cARM tool compounds can selectively label endogenous human polyclonal antirhamnose antibodies via ELISA (4 α-O rhamnose or 5 α-S rhamnose) (Figure 2B). cARMs (4, 5) and noncovalent analog ARMs (1, 2) were incubated with 2% human serum for 48 h followed by addition to a streptavidin-ELISA plate. Antibody recruitment to the plate surface was measured via the addition of HRP-conjugated anti-IgG or anti-IgM secondary antibody, followed by a chromogenic substrate. […] In the absence of a competitor, we observed robust absorbance signal in samples incubated with cARM. […]
For `C[C@@H]1O[C@@H](OCc2cn(CCOCCNC(=O)OCCOCCOCCOCCOCCOCCOCCOCCNC(=O)CCCC[C@@H]3SC[C@@H]4NC(=O)N[C@@H]43)nn2)[C@H](O)[C@H](O)[C@H]1O` [compound 1], the “antibody binding signal, quench control” value is “baseline signal”.

With `C[C@@H]1O[C@@H](SCc2cn(CCOCCNC(=O)OCCOCCOCCOCCOCCOCCOCCOCCNC(=O)CCCC[C@@H]3SC[C@@H]4NC(=O)N[C@@H]43)nn2)[C@H](O)[C@H](O)[C@H]1O` [compound 2], the “antibody binding signal, quench control” value is “baseline signal”.

As for `C[C@@H]1O[C@@H](OCc2cn(CCc3cn(C(=O)OCCOCCOCCOCCOCCOCCOCCOCCNC(=O)CCCC[C@@H]4SC[C@@H]5NC(=O)N[C@@H]54)cn3)nn2)[C@H](O)[C@H](O)[C@H]1O` [compound 4], the “antibody binding signal, quench control” value is “significant antibody binding signal”.
